Several values for one entry are separate records, joined by “and”; a condition that tells them apart may be missing. Equal values may be shown once. Entries after “also recorded” stand apart in the source; their conditions may differ. Read-outs that look alike come from different tables or passages of the source.
What was measured:
[1] = target: T1, E. coli RelA (Escherichia coli, UniProt P0AG20); parameters: method as in PMID 20483622; conditions: read-out: IC50 / concentration for 50% inhibition of E. coli RelA; in the test tube; cited from earlier work
T1 construct: made in house

[2] = system: ΔywaCΔyjbM B. subtilis; assay: Growth of ΔywaCΔyjbM B. subtilis in valine drop-out S7 medium (functional test for Rel inhibition); type: cell-based, Bacillus subtilis; conditions: up to 1 mM (0 to 1000 µM)
Source text: Finally, we tested the three of our most promising inhibitors (DR-4250, DR-M014 and DR-5163) for RSH inhibition in bacterial culture. For this we used the Gram-positive bacterium B. subtilis due to its better uptake of compounds as compared to Gram-negative species such as E. coli[50]. The functional test for RSH inhibition relied on the auxotrophy of (p)ppGpp-deficient (ppGpp^0) B. subtilis for methionine and branched-chain amino acids valine, leucine and isoleucine. The B. subtilis RSH repertoire consists of one multi-domain ribosome-associated enzyme Rel and two SAS, YwaC and YjbM[3][52]. Because the SAS RelQEf is refractory to inhibition by our test compounds (Supplementary Figure 2), we used a B. subtilis strain lacking SASs (ΔywaCΔyjbM), in which the sole source of (p)ppGpp is Rel[53]. Defined S7 medium[54] lacking valine supports the growth of ΔywaCΔyjbM B. subtilis, but not the ppGpp^0 stain (Supplementary Figure 5). […] This is indicative of the test compounds failing to inhibit Rel and thereby rendering the strain phenotypically ppGpp^0 (Supplementary Figure 5). A lack of cellular uptake is a likely explanation. […]
Growth assays with Bacillus subtilis BSB1 wild type strain
SAS deletion and ppGpp0 strain of B. subtilis5 were grown in S7 liquid medium6 except for amino acid requirements, which were met as described elsewhere 7. On 96-well plate, 90 µl of B subtilis starter culture was mixed with 10 µL of compound dilution (in 5 mM Tris pH 7.2) so that final OD600 was 0.025 (l = 1 cm).
Following incubation was without shaking at 37°C and growth was monitored with Tecan Infinite M200 at OD600 (raw OD600 values are reported). B. subtilis starter culture was prepared as follows. Late exponential phase cells in S7, with full set of amino acids, were diluted ≈10-fold in S7 lacking either valine or lysine so that, after addition of 8% DMSO, OD600 was 0.25. Next, cell suspensions were aliquoted, frozen in liquid nitrogen, and stored at -80°C. Just before the experiment, cells were thawed on ice and appropriate amount of media was […]
DywaC DyjbM BSB1 B. subtilis ppGpp0. BSB1 B. subtilis wild type strain as grown on S7 synthetic media8 drop-out media lacking valine which abolishes the growth of ppGpp0 (Drel DywaC DyjbM) strain due to valine auxotrophy (dashed line). […]
inhibit the Rel and render the strain ppGpp0.

[3] = system: T2, E. coli EF-G; type: biochemical
T2 construct: made in house
Experimental: (§1) Thin layer chromatography (TLC) analysis of nucleotide mixtures
Both EF-G GTPase reaction and ppGpp synthesis by RelA were followed by TLC analysis followed by scintillation counting according to Mechold and colleagues, with modifications1. Time points from the reaction mixtures (5 μl, see below for details) were quenched by addition 4 μl 70% formic acid supplemented with a cold nucleotide standard used for UV-shadowing (10 mM GDP and 10 mM GTP) and spotted on PEI-TLC plates (Macherey-Nagel). TLC was run in buffer, plates dried, cut into sections guided by UV-shadowing and 3H radioactivity was quantified by scintillation counting in Optisafe-3 (Fisher) scintillation cocktail on Perkin Elmer Tricarb 2810TR counter. Conversion of substrate to product was quantified as described in Shyp et al. (2012)2. […]
GTPase assays with E. coli EF-G
The reaction mixture contained 0.5 μM 70S, 0.1 μM EF-G, in HEPES:Polymix (25 mM Hepes 7.5/ 1 mM DTT / 5 mM Mg2+) pre-incubated for 2 minutes at 37°C prior to addition of 300 μM [3H]GTP substrate (Hartman), after which time points (5 μl) taken, quenched with formic acid and analyzed by TLC (see above). […]

[4] = target: T1, E. coli RelA; assay: Inhibition of [3H]GDP to [3H]ppGpp conversion by E. coli RelA activated by vacant 70S ribosomes and 100 μM ppGpp; type: biochemical; conditions: for IC50: 30 nM RelA, 0.5 μM vacant 70S, 100 μM ppGpp; for nHill (Hill coefficient of the titration fit): Supplementary Table 1, 4-parameter logistic model
Experimental: For the initial characterization of compounds, we followed the inhibition of [^3H] GDP conversion to [^3H] ppGpp catalyzed by E. coli RelA in a simplified system in which RelA’s activity was induced by vacant 70S ribosomes and 100 μM of ppGpp[15]. Unlabeled ppGpp was added to reaction mixtures in order to linearize the kinetics of [^3H] ppGpp synthesis due to an activating effect on the RelA enzyme. We used a targeted library of 69 nucleotides belonging to several structural classes: ‘true’ ppGpp analogues; Relacin and its derivatives; pyrrolidine, azetidine, piperidine and acyclic phosphonates. Chemical structures of tested compounds and titrations in the RelA:70S:ppGpp system are presented in Supplementary Table 1.
(§2) Detailed description of experimental procedures can be found in Supplementary Text. Biochemical assays utilize in vitro translation[58] and stringent response[15] systems from E. coli purified components. Experiments were performed in HEPES:Polymix[58] buffer with either 5 (for enzymatically assembled initiation complexes) or 15 mM (for vacant 70 S, as well as non-enzymatically assembled programmed ribosomes) Mg^2+. Expression and purification of E. faecalis RelQ was performed as per Gaca (2015) and colleagues. GTPase and ppGpp synthesis were followed using TLC separation and radiochemical detection of ^3H-labelled nucleotides. Multiple round in vitro transcription assays were performed as per Bernardo et al.[49] with minor modifications. Inhibition efficiency (IC50) was calculated using 4-parameter logistic model (Hill equation) as per Sebaugh[60].
as §1
Both EF-G GTPase reaction and ppGpp synthesis by RelA were followed by TLC analysis followed by scintillation counting according to Mechold and colleagues, with modifications1. Time points from the reaction mixtures (5 μl, see below for details) were quenched by addition 4 μl 70% formic acid supplemented with a cold nucleotide standard used for UV-shadowing (10 mM GDP and 10 mM GTP) and spotted on PEI-TLC plates (Macherey-Nagel). TLC was run in buffer, plates dried, cut into sections guided by UV-shadowing and 3H radioactivity was quantified by scintillation counting in Optisafe-3 (Fisher) scintillation cocktail on Perkin Elmer Tricarb 2810TR counter. Conversion of substrate to product was quantified as described in Shyp et al. (2012)2.
Enzymatic assays with E. coli RelA
Screening: all experiments were performed in HEPES:Polymix, Mg2+ of 5 mM, 37 […]
μM ppGpp was pre-incubated at 37° C for 2 min and then reaction started by addition of 1 mM ATP, time points (5 μl) taken, quenched with formic acid and analyzed by TLC. Inhibition efficiency (IC50) was calculated using 4-parameter logistic model (Hill equation) as per Sebaugh (2011)3. […]

[5] = target: T3, E. faecalis SAS RelQ (RelQEf) (Enterococcus faecalis, UniProt Q830U9); assay: Inhibition of E. faecalis SAS RelQ ppGpp synthesis; type: biochemical; conditions: concentrations up to 1 mM
Source text: In E. coli, ppGpp is synthesized by the multi-domain RSHs RelA and SpoT, however, numerous single-domain RSHs – Small Alarmone Synthetases (SAS) – are widely distributed across bacterial taxa[3]. […] Therefore we tested the effects of DR-4250, DR-M014 and DR-5163 on RelQEf activity (Supplementary Figure 2).
as §2
RelQ activity0.4 RelQ activity0.4 RelQ activity0.4
Supplementary Figure 2 | Inhibition of E. faecalis SAS RelQ by DR-4250, DR-
M014 and DR-5163 is inefficient. The reaction mixture contains 0.25 µM RelQEf,
300 µM [3H] GDP, 0.5 mg/ml BSA, 100 µM ppGpp, 1 mM ATP in Hepes:Polymix at […]

[6] = target: T3, E. faecalis SAS RelQ (RelQEf); conditions: found earlier; cited from earlier work
[7] = system: T4, E. coli σ70-RNAP holoenzyme; assay: Multiple round in vitro transcription by σ70-RNAP (rrnB P1 and rna1 promoters); type: biochemical, Escherichia coli; conditions: concentrations up to 5 mM; regardless of presence or absence of 2 μM DksA and 100 μM ppGpp
T4 construct: purchased Epicentre
Experimental: Next, we tested their effects on RNAP. […] We used multiple round in vitro transcription driven from the rrnB P1, a well-characterized ppGpp/DksA inhibited promoter, as described earlier[49]. The assays were performed in the presence and absence of 2 μM DksA and/or 100 μM ppGpp (Fig. 5a).
Effect of inhibitors on rrnB P1 (−66 to +50) promoter transcription by RNAP. Graphs depicting inhibitor (0, 0.025, 0.05, 0.15, 0.4 and 0.6 mM) titrations performed at 30 °C in T-buffer with 0.5 nM template (σ^70-rrnB P1 promoter (pRLG6214)) and 5 nM σ^70-RNAP, in presence or absence of 100 μM ppGpp and/or 2 μM DksA. Error bars represent standard deviations of linear regression estimates, each experiment was performed at least three times.
The assays were performed as per Bernardo et al. (2006)4 with minor modifications. Reactions were carried out in T-buffer (50 mM Tris-HCl pH 7.5, 100 mM NaCl, 10 mM MgCl2, 1 mM dithiothreitol, 0.1 mM EDTA and 0.275 mg of BSA per ml) at 30°C. Inhibitors were titrated to final concentrations of 0, 0.025, 0.05, 0.15, 0.4 and 0.6 mM. E. coli s 70-RNAP holoenzyme (Epicentre, final concentration 5 nM) and template plasmid DNA containing s70-rrnB P1 promoter, (pRLG6214, final concentration 0.5 nM) was used for all experiments. Before initiation of transcription, E. coli s70-RNAP holoenzyme and T buffer were incubated at 30°C for 5 min. Above mix was added to predispensed mixture of inhibitor and the template plasmid DNA containing s70-rrnB P1 promoter (pRLG6214), incubated for further 20 min to initiate open complex formation. 2.5 µl of a mixture of ATP (ﬁnal concentration 0.5 mM), GTP and CTP (ﬁnal concentration 0.2 mM each), UTP (ﬁnal concentration 0.08 mM) and [a-32P]-UTP (5 µCi at > 3000 Ci/mmol, PerkinElmer) was added to initiate transcription by RNAP. After 7 min, 1 µl heparin (0.125 mg/ml ﬁnal concentration) was added to the reaction mixture to prevent re-initiation and further incubated for 5 min to allow completion of initiated transcripts. Transcription was terminated by addition of formamide loading buffer and samples were electrophoresed on a 7M urea-5% polyacrylamide gel and quantified by phosphorimaging.

[8] = system: Bacillus subtilis; parameters: method as in PMID 20483622; conditions: mM-range concentrations; cited from earlier work
[9] = system: transcription or translation in E. coli reconstituted systems; parameters: method as in PMID 7047215; conditions: cited from earlier work
[10] = target: 70S initiation complexes programmed with mRNA(MF) (E. coli) (UniProt P0AG67); assay: co-sedimentation; spin-down assay: 2 uM RelA, 1 uM 70S initiation complexes programmed with mRNA(MF), with or without 3 uM deacylated tRNA-Phe and 500 uM DR-4250 or DR-M014; 37 C for 15 min; 30% sucrose cushion, 70,000 r.p.m., 25 min, 12 C; pellets on 10% SDS-PAGE; the stoichiometry is told for the sample with A-site deacylated tRNA-Phe
[11] = 0.3 mM [3H]GDP, 1 mM ATP, read-out: IC50

T3 sequence (Q830U9 entry or part of it): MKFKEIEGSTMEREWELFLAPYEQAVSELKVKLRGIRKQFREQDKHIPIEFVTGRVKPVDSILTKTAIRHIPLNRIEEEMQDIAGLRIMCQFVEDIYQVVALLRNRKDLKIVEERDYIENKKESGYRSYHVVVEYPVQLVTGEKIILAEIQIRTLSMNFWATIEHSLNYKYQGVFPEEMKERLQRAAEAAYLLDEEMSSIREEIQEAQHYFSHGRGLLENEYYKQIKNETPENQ
T1 sequence (P0AG20 whole entry): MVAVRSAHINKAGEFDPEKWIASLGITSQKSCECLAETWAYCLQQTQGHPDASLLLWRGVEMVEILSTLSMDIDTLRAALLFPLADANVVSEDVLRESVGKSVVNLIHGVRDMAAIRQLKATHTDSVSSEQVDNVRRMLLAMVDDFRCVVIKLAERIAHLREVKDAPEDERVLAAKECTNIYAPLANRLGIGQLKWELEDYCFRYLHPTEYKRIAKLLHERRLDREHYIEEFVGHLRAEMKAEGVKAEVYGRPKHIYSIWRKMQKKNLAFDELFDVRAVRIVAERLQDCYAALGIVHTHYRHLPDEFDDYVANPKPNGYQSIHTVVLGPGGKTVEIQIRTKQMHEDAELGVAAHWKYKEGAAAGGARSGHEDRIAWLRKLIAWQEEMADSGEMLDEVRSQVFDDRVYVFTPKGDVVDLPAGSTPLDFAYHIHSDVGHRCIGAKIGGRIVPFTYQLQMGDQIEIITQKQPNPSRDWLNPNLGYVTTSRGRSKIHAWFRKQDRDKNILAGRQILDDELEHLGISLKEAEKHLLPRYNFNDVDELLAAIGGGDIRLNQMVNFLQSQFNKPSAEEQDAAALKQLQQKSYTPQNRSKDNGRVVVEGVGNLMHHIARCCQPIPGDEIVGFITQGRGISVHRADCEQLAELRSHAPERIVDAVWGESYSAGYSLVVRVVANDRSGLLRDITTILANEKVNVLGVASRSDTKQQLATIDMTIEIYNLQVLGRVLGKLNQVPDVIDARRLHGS
Sequence of Escherichia coli RelA (P0AG20 whole entry): as above

## Nc1nc2c(ncn2[C@H]2C[C@H](OP(=O)(O)CP(=O)(O)O)[C@@H](COP(=O)(O)CP(=O)(O)O)O2)c(=O)[nH]1 [(10), 2′-deoxyguanosine-3′-5′-di(methylene bisphosphonate)]
[1]
  IC50: ~1000 µM and 1000 µM

## Nc1nc2c(ncn2CCNC(=O)P(=O)(O)O)c(=O)[nH]1 [DR-5163]
[2]
  Effect on growth of ΔywaCΔyjbM B. subtilis (in words): did not affect bacterial growth; also recorded: does not affect the growth
[3]; up to 1 mM
  Inhibitory effect on EF-G GTPase activity (in words): no inhibitory effect
[4]; [11]
  IC50: 0.245 ± 0.039 mM
[4]; 5 mM Mg2+, 37 °C, no unit beside the value, titration axis in mM, read-out: IC50 (Supplementary Table 1, example titration)
  IC50: 0.25 ± 0.05 mM
[4]
  nHill (Hill coefficient of the titration fit): 1.3 ± 0.26
[5]
  Effect on RelQEf activity (in words): inefficient; also recorded: almost inactive

## CC(C)C(=O)Nc1nc2c(ncn2[C@H]2C[C@H](OC(=O)NCC(=O)NCC(=O)O)[C@@H](COC(=O)NCC(=O)NCC(=O)O)O2)c(=O)[nH]1 [Relacin, reference compound]
[3]; up to 5 mM
  Inhibitory effect on EF-G GTPase activity (in words): no inhibitory effect
[6]
  Sensitivity of RelQEf to Relacin (in words): virtually insensitive
[4]; [11]
  IC50: 0.84 ± 0.2 mM
[4]
  nHill (Hill coefficient of the titration fit): 1.8 ± 0.001
[7]
  Effect on rrnB P1 transcription by RNAP (in words): mild inhibitory effect
[8]
  Biological effect on Bacillus subtilis (in words): has a biological effect

## Nc1ncnc2c1ncn2C1OC(COP(=O)(O)OP(=O)(O)O)C(OP(=O)(O)OP(=O)(O)O)C1O (stereo not shown) [ppApp]
[3]; up to 100 μM
  Inhibitory effect on EF-G GTPase activity (in words): no inhibitory effect
[4]; [11]
  IC50: 0.0245 ± 0.0035 mM
[4]
  nHill (Hill coefficient of the titration fit): 0.7 ± 0.1
[4]; ppGpp up to 100 μM, ppApp 50 µM-1 mM, thio-ppGpp 100 µM (Supplementary Figure 1)
  Activation of RelA's synthetic activity (in words): do not activate; also recorded: neither ppApp nor 6-thio-ppGpp activate
[9]
  Inhibitory effect on transcription or translation (in words): does not have a pronounced inhibitory effect

## Escherichia coli RelA (from UniProt P0AG20 1-744) (enzyme)
[10]
  stoichiometry N: 1

Source: PMC5291098, “Molecular mutagenesis of ppGpp: turning a RelA activator into an inhibitor” (Scientific Reports, 2017)
